As a reminder, the IC50 is the concentration needed to halve the response being measured. As usually defined, the EC50 is the concentration that produces a half-maximal response. A low value points to a more potent agent.

Structures can show the parent of a compound that is named as a salt. Where two headings read alike, the source gives them in different places. Bounds are passed on as bounds.

The target in series [1] is HIV-1 integrase (Human immunodeficiency virus type 1 group M subtype B, UniProt P12497). Put plainly: HIV-1 integrase inhibition assay in vitro (radiolabeled duplex substrate, U5 end of HIV LTR). The class given is biochemical. How it is done: For the purpose of Table 1, the HIV-1 integrase inhibition assay was carried out following a known procedure (Burke, Jr. T. R. et al., J. Med. Chem. 38, 4171-4178 (1995)). A suitable radiolabeled duplex substrate corresponding to the U5 end of the HIV LTR was used.

The test system of series [2] is MT-4 cell line. Kind of series: Cytotoxicity assay in vitro (MTT, virus omitted). Type of series: cell-based. As to conditions: human, 6 days. How it is done: (§1) To evaluate the EC50 of our compounds, various drug concentrations are incubated with the infected cell for six days and then the metabolic activity of the cells is monitored by the MTT assay. (See A. J. Japour et al, Antimicrobial Agents and Chemotherapy, 37, 1095-1101, 1993 and R. Pauwels et al. Journal of Virological Methods, 20, 309-321, 1988).
(§2) We use the laboratory viral strain NL4.3 as wild type virus and the cell line used is MT-4 which is a T-cell line highly sensitive to HIV-1. We also use some WT clinical strains. To address the resistance issue we assay the inhibitors with NL4.3 mutants which are designed to be resistant to specific commercially available inhibitors. The following reagents were obtained through the AIDS Research and Reference Reagent Program, division of AIDS, NIAID, NIH: pNL4.3 from Dr. Malcolm Martin; MT-4 cell line from Dr. Douglas Richman. Wild type (WT) clinical strains were obtained from “Laboratoire de santé publique du Québec”.
The same MTT assay is used to evaluate the CCIC50 of our compounds except that the virus is omitted.

Series [3] concerns HIV-1 laboratory viral strain NL4.3. Put plainly: Anti-viral assay in vitro (MTT, infected MT-4 cells). The following applies: reduce virus replication in cell culture by 50%, six days. The class given is cell-based. How it is done: as §1, §2
Where [4] appears, read: concentration of drug required to reduce the enzyme activity by 50%, read-out: IC50.
The mark [5] stands for this setting: IC50, concentration of drug required to reduce the enzyme activity by 50%.
Setting [6] is: Human immunodeficiency virus 1, MT4, 144 h.

On to `Cc1nc(N=Nc2cccc(S(N)(=O)=O)c2)c(COP(=O)(O)O)c(C=O)c1O` [Example 35, 6-(3-Sulfamoylphenylazo)-pyridoxal-5-phosphate], for which the IC50 in series [1] (setting [4]) came to 12.8 µM. Still for that read-out and setting: then `Cc1nc(N=Nc2ccc(C(=O)NC(C)(C)C)cc2)c(COP(=O)(O)O)c(C=O)c1O` [Example 11, 6-[4-(tert-Butylcarbamoyl)phenylazo]-pyridoxal-5-phosphate], with 2.73 µM.

Molecule `Cc1nc(N=Nc2cccc(C(=O)NC34CC5CC(CC(C5)C3)C4)c2)c(COP(=O)(O)O)c(C=O)c1O` [Example 4, 6-[3-(N-(1-Adamantyl)carbamoyl)phenylazo]-pyridoxal-5-phosphate Hydrochloride] showed a CCIC50 in series [2] of 13 µM. Further, half-maximal inhibition in series [1] (setting [5]) (IC50) required 0.4 µM. The molecule also had an EC50 in series [3] (setting [6]) of 50 µM. Regarding `Cc1nc(/N=N/c2cccc(C(=O)N3CCCCC3)c2)c(COP(=O)(O)O)c(C=O)c1O` [Example 8, 6-[3-(1-Piperidinecarbonyl)phenylazo]-pyridoxal-5-phosphate], the IC50 in series [1] (setting [4]) was determined as 2.8 µM. Take `Cc1nc(N=Nc2ccccc2[N+](=O)[O-])c(COP(=O)(O)O)c(C=O)c1O` [Example 33, 6-(2-Nitrophenylazo)-pyridoxal-5-phosphate]: in series [1] (setting [4]), the IC50 came out at 5.25 µM. Further, in series [3] (setting [6]), the EC50 came to 33 µM.

Consider `Cc1nc(N=Nc2cc(C(=O)O)cc(C(=O)O)c2)c(COP(=O)(O)O)c(C=NO)c1O` [Example 52, 6-(3,5-Dicarboxyphenylazo)-pyridoxal-5-phosphate Oxime], for which, in series [2], the CCIC50 stood at 60 µM. Also, in series [1] (setting [5]), the IC50 was found to be 8.75 µM. This molecule also came in with an EC50 in series [3] (setting [6]) of 15 µM.

For `Cc1nc(N=Nc2ccc(S(=O)(=O)NC(C)(C)C)cc2)c(COP(=O)(O)O)c(C=O)c1O` [Example 10, 6-[4-(tert-Butylsulfamoyl)phenylazo]-pyridoxal-5-phosphate], the IC50 in series [1] (setting [4]) came out at 4.25 µM. The same measure, in the same setting: then `Cc1nc(N=Nc2ccc(S(=O)(=O)NC3CCCCC3)cc2)c(COP(=O)(O)O)c(C=O)c1O` [Example 18, 6-[4-(Cyclohexylsulfamoyl)phenylazo]-pyridoxal-5-phosphate], with 2.2 µM; and `Cc1nc(N=Nc2cccc(S(=O)(=O)N3CCCCC3)c2)c(COP(=O)(O)O)c(C=O)c1O` [Example 6, 6-[3-(1-Piperidinesulfonyl)phenylazo]-pyridoxal-5-phosphate], with 4.37 µM. Regarding `Cc1nc(N=Nc2cc(C(=O)O)cc(C(=O)O)c2)c(COP(=O)(O)O)c(C=O)c1O` [Example 50, 6-(3,5-Dicarboxyphenylazo)-pyridoxal-5-phosphate Penta-potassium Salt], the CCIC50 in series [2] is over 100 µM. In series [1] (setting [5]), this molecule returned an IC50 of 0.47 µM. Also, it took 5 µM to reach a half-maximal effect in series [3] (EC50). In turn, `Cc1ccc(C(=O)O)cc1N=Nc1nc(C)c(O)c(C=O)c1COP(=O)(O)O` [Example 38, 6-(5-Carboxy-2-methylphenylazo)-pyridoxal-5-phosphate] gave a CCIC50 in series [2] of over 100 µM. The IC50 in series [1] (setting [5]) is 2.3 µM. The same molecule came in with a half-maximal effective concentration (EC50) in series [3] (setting [6]) of 50 µM. Regarding `Cc1nc(N=Nc2cccc(C(=O)Nc3ccccn3)c2)c(COP(=O)(O)O)c(C=O)c1O` [Example 29, 6-[3-(2-Pyridylcarbamoyl)phenylazo]-pyridoxal-5-phosphate], the CCIC50 in series [2] was over 100 µM. In addition, the IC50 in series [1] (setting [5]) is 3.85 µM. The molecule also came in with an EC50 in series [3] (setting [6]) of 24 µM.

Molecule `Cc1nc(N=Nc2cccc(C(=O)Nc3cccnc3)c2)c(COP(=O)(O)O)c(C=O)c1O` [Example 28, 6-[3-(3-Pyridylcarbamoyl)phenylazo]-pyridoxal-5-phosphate] came in with a CCIC50 in series [2] of 50 µM. The half-maximal inhibitory concentration (IC50) in series [1] (setting [5]) was determined as 3.25 µM. In series [3] (setting [6]), this molecule returned an EC50 of 6.25 µM.

Take `Cc1nc(N=Nc2ccc(S(=O)(=O)Nc3ncccn3)cc2)c(COP(=O)(O)O)c(C=O)c1O` [Example 25, 6-[4-(2-Pyrimidylsulfamoyl)phenylazo]-pyridoxal-5-phosphate]: the CCIC50 in series [2] is over 100 µM. In series [1] (setting [5]), this molecule came in with an IC50 of 0.3 µM. In series [3] (setting [6]), this molecule displayed an EC50 of 4.3 µM. Consider `Cc1nc(N=Nc2ccc(S(=O)(=O)Nc3ccccc3F)cc2)c(COP(=O)(O)O)c(C=O)c1O` [Example 44, 6-[4-(2-Fluorophenylsulfamoyl)phenylazo]pyridoxal-5-phosphate], for which the IC50 in series [1] (setting [4]) came to 7.7 µM. `Cc1nc(N=Nc2cc(F)c(F)c(C(=O)O)c2F)c(COP(=O)(O)O)c(C=O)c1O` [Example 41, 6-(3-Carboxy-2,4,5-trifluorophenylazo)-pyridoxal-5-phosphate] came in with a CCIC50 in series [2] of over 100 µM. The molecule further displayed an IC50 in series [1] (setting [5]) of 2 µM. In addition, it took 14 µM to reach a half-maximal effect in series [3] (setting [6]) (EC50).

In series [2], `Cc1nc(N=Nc2ccc(C#N)cc2)c(COP(=O)(O)O)c(C=O)c1O` [Example 42, 6-(4-Cyanophenylazo)-pyridoxal-5-phosphate] came in with a CCIC50 of over 100 µM. In series [1] (setting [5]), this molecule showed an IC50 of 11.3 µM.

As for `Cc1nc(N=Nc2ccc(S(=O)(=O)Nc3ccc(F)cc3)cc2)c(COP(=O)(O)O)c(C=O)c1O` [Example 46, 6-[4-(4-Fluorophenylsulfamoyl)phenylazo]-pyridoxal-5-phosphate], the CCIC50 in series [2] came to 32 µM. For the same molecule, the IC50 in series [1] (setting [5]) stood at 1.5 µM.

For the molecule `Cc1nc(N=Nc2cccc(C(=O)NC3=NCCCN3)c2)c(COP(=O)(O)O)c(C=O)c1O` [Example 36, 6-[3-(2-(1,4,5,6-Tetrahydropyrimidyl)carbamoyl)phenylazo]-pyridoxal-5-phosphate], the IC50 in series [1] (setting [4]) was 6.2 µM. As to `Cc1nc(N=Nc2ccc(S(=O)(=O)Nc3ccon3)cc2)c(COP(=O)(O)O)c(C=O)c1O` [Example 32, 6-[4-(3-Isoazolylsulfamoyl)phenylazo]-pyridoxal-5-phosphate], the IC50 in series [1] (setting [4]) worked out at 3 µM. The response in series [3] (setting [6]) was half-maximal at 50 µM (EC50).

`Cc1nc(N=Nc2ccc(S(=O)(=O)Nc3ncccn3)cc2)c(COP(=O)(O)O)c(C=NO)c1O` [Example 53, 6-[4-(2-Pyrimidylsulfamoyl)phenylazo]-pyridoxal-5-phosphate Oxime]: the IC50 in series [1] (setting [4]) worked out at 2 µM. Moreover, the EC50 in series [3] (setting [6]) is 15 µM. Regarding `Cc1nc(N=Nc2cccc(S(=O)(=O)N3CCCC3)c2)c(COP(=O)(O)O)c(C=O)c1O` [Example 12, 6-[3-(1-Pyrrolinesulfonyl)phenylazo]-pyridoxal-5-phosphate], in series [1] (setting [4]), the IC50 was 2.9 µM.

Regarding `Cc1nc(N=Nc2ccc(C(=O)NC3CCCCC3)cc2)c(COP(=O)(O)O)c(C=O)c1O` [Example 14, 6-[4-(Cyclohexylcarbamoyl)phenylazo]-pyridoxal-5-phosphate], in series [1] (setting [4]), the IC50 was 4.36 µM.

Regarding `Cc1nc(N=Nc2cccc(Cl)c2)c(COP(=O)(O)O)c(C=O)c1O` [Example 34, 6-(3-Chlorophenylazo)-pyridoxal-5-phosphate], in series [1] (setting [4]), the IC50 was 2.6 µM. In addition, a half-maximal effect in series [3] (setting [6]) (EC50) was put at 45 µM.

For the molecule `Cc1nc(N=Nc2ccc(S(=O)(=O)Nc3cccc(F)c3)cc2)c(COP(=O)(O)O)c(C=O)c1O` [Example 45, 6-[4-(3-Fluorophenylsulfamoyl)phenylazo]-pyridoxal-5-phosphate], in series [1] (setting [4]), the IC50 was 10.5 µM. On the same count and under the same terms, under `CNS(=O)(=O)c1cccc(N=Nc2nc(C)c(O)c(C=O)c2COP(=O)(O)O)c1` [Example 26, 6-[3-(Methylsulfamoyl)phenylazo]-pyridoxal-5-phosphate] stands 3.7 µM; under `Cc1nc(N=Nc2ccc(S(=O)(=O)N3CCCC3)cc2)c(COP(=O)(O)O)c(C=O)c1O` [Example 15, 6-[4-(1-Pyrrolinesulfonyl)phenylazo]-pyridoxal-5-phosphate], 1.7 µM. With `Cc1nc(N=Nc2cc(C(=O)O)cc(C(=O)O)c2)c(COP(=O)(O)O)c(C=O)c1O` [Example 22, 6-(3,5-Dicarboxyphenylazo)-pyridoxal-5-phosphate], the CCIC50 in series [2] was over 100 µM. Also, in series [1] (setting [5]), the IC50 was 0.43 µM. Consider `Cc1cc(NS(=O)(=O)c2ccc(N=Nc3nc(C)c(O)c(C=O)c3COP(=O)(O)O)cc2)nc(C)n1` [Example 23], for which the IC50 in series [1] (setting [4]) is 2.75 µM. Same read-out and setting: then `Cc1nc(N=Nc2ccc(C(N)=O)cc2)c(COP(=O)(O)O)c(C=O)c1O` [Example 43, 6-(4-Carbamoylphenylazo)-pyridoxal-5-phosphate], with 8.7 µM; and `Cc1nc(N=Nc2cccc(S(=O)(=O)NCC(C)C)c2)c(COP(=O)(O)O)c(C=O)c1O` [Example 16, 6-[3-(Isobutylsulfamoyl)phenylazo]-pyridoxal-5-phosphate], with 1.9 µM; and `Cc1nc(N=Nc2ccc(S(=O)(=O)NCC(C)C)cc2)c(COP(=O)(O)O)c(C=O)c1O` [Example 17, 6-[4-(Isobutylsulfamoyl)phenylazo]pyridoxal-5-phosphate], with 2.45 µM. The same measure, in the same setting: then `CCCCNS(=O)(=O)c1cccc(N=Nc2nc(C)c(O)c(C=O)c2COP(=O)(O)O)c1` [Example 19, 6-[3-(Butylsulfamoyl)phenylazo]-pyridoxal-5-phosphate], with 2 µM; and `CNS(=O)(=O)c1ccc(N=Nc2nc(C)c(O)c(C=O)c2COP(=O)(O)O)cc1` [Example 20, 6-[4-(Methylsulfamoyl)phenylazo]-pyridoxal-5-phosphate], with 1.2 µM; and `Cc1nc(N=Nc2cccc(S(=O)(=O)NCCO)c2)c(COP(=O)(O)O)c(C=O)c1O` [Example 21, 6-[3-(2-Hydroxyethylsulfamoyl)phenylazo]-pyridoxal-5-phosphate], with 2.45 µM.

The values are drawn from patent US6638921B1, “Pyridoxal-5-phosphate derivatives as HIV integrase inhibitors” (Pharmacor Inc., priority 2002, dated 2003).
